# According to PMC11984388, “A brain-accessible peptide modulates stroke inflammatory response and neurotoxicity by targeting BDNF-receptor TrkB-T1 specific interactome” (Theranostics, 2025):
# How the values were obtained:
# Test in all cases: Western blot in excitotoxicity
# Type in all cases: cell-based, rat
# MEF2D = settings: peptide 15 µM 30 min, NMDA 30-120 min; normalized to NSE; differences not statistically significant compared to TMyc; n = 5
# Protocol: (§1) amounts were combined with streptavidin-agarose beads previously was hed with NP-40 lysis buffer and incubated at room temperature for 1.5 h with agitation. Sedimented beads were was hed 3 times with the NP-40 lysis buffer to remove poss ible non-spe cifica lly bounded proteins, and peptides and their interacting proteins were released by incubation at 50°C for 40 min in RI P A modifie d buffer (50 mM Tris HCl pH 8.0, 150 mM NaC l, 1% sodium deoxycholate , 1% NP-40) combined with protease and phospha tase inhibitors as before .
# (§2) Prote omic analysis of Bio-sT T1Ct-inte racting proteins
# (§3) Prote omic analys is was performed in Pros taR (1.34.6) software tool, using the protocol for protein-level analys is. Prote omic abundanc es from 4 independent experiments were log-transforme d and filtered follow ing quality parameters: proteins present in at least >50% of one of the conditions and identifie d by at least 2 unique peptides . After, data was normalized by LOESS (locally es tima te d sc atterplot smoothing, k=0.7), and POV (par tially obse rved values ) and ME C (miss ing in entire condition values ) imputations were made using, respec tive ly, KNN (k-neares t-neighbour k=10) and det.quantile (quantile imputation using quantile = 2,5).
# (§4) Differential analys is was performed using limma (3.16). Multiple comparison p-values where calibrated using sl i m algorithm and the FDR (fals e disc overy rate) is indicated for eac h comparison. For PCA (principal component analys is ), filte red, normalized and imputed data was use d corre cted for batch ef fe ct using removeBatc hEffe ct {limma} function. […]
# (§5) dry milk solution in Tris Buffere d Saline-Tween (TBS-T, 20 mM Tris HCl pH 7.5, 137 mM NaC l, 0.05% Tween-20) and incubated overnight at 4°C with prima ry antibodies . […] To conclude, immunore activity was detecte d using Clar ity Wes ter n ECL Blotting Substrate (BioRad) and band intensity was quantified by dens itome tric analys is (Photos hop, Adobe). […] Multiple independent experiments were car r ied out and quantitated as detailed in the figure legends . […]
# TrkB-T1 = settings: peptide 15 µM 30 min, NMDA 30-120 min; compared to TMyc
# Protocol: as §1, §2, §3, §4, §5
# pCREB = settings: peptide 15 µM 30 min, NMDA 30-120 min; normalized to NSE; differences not statistically significant compared to TMyc; n = 5
# Protocol: as §1, §2, §3, §4, §5
substance,measurement,setting,value
Ac-YGRKKRRQRRRPPFVLFHKIPLDG-NH2 [TT1Ct],Effect on MEF2D levels,MEF2D,partially preserved
same,Effect on TrkB-T1 regulation,TrkB-T1,did not have significant effects
same,Effect on pCREB levels,pCREB,partially preserved
